Data reported in ChEMBL document CHEMBL1137640, “In vitro antimycobacterial spectrum of a diarylquinoline ATP synthase inhibitor” (2007).
Converted amounts (≈) assume the structure as drawn.

Key:
Format in all cases: functional
Mycobacterium avium [1] = assay: Antimicrobial activity against Mycobacterium avium 2 after 2 to 4 weeks by two fold dilution method
Mycobacterium avium [2] = assay: Antimicrobial activity against Mycobacterium avium 4 after 2 to 4 weeks by two fold dilution method
Mycobacterium avium [3] = assay: Antimicrobial activity against Mycobacterium avium 6 after 2 to 4 weeks by two fold dilution method
Mycobacterium avium [4] = assay: Antimicrobial activity against Mycobacterium avium 8 after 2 to 4 weeks by two fold dilution method
Mycobacterium avium [5] = assay: Antimicrobial activity against Mycobacterium avium 9 after 2 to 4 weeks by two fold dilution method
Mycobacterium avium [6] = assay: Antimicrobial activity against Mycobacterium avium 11 after 2 to 4 weeks by two fold dilution method
Mycobacterium avium [7] = assay: Antimicrobial activity against Mycobacterium avium 16 after 2 to 4 weeks by two fold dilution method
Mycobacterium avium [8] = assay: Antimicrobial activity against Mycobacterium avium 21 after 2 to 4 weeks by two fold dilution method
Mycobacterium avium [9] = assay: Antimicrobial activity against Mycobacterium avium 23 after 2 to 4 weeks by two fold dilution method
[10] = test system: Mycobacterium intracellulare; assay: Antimicrobial activity against Mycobacterium intracellular 7 after 2 to 4 weeks by two fold dilution method
[11] = test system: Mycobacterium intracellulare; assay: Antimicrobial activity against Mycobacterium intracellular 20 after 2 to 4 weeks by two fold dilution method
[12] = test system: Mycobacterium intracellulare; assay: Antimicrobial activity against Mycobacterium intracellular 14 after 2 to 4 weeks by two fold dilution method
Mycobacteroides chelonae = assay: Antimicrobial activity against Mycobacterium chelonae after 2 to 4 weeks by two fold dilution method
[13] = test system: Mycolicibacterium fortuitum; assay: Antimicrobial activity against Mycobacterium fortuitum after 2 to 4 weeks by two fold dilution method
[14] = test system: Mycolicibacterium mageritense; assay: Antimicrobial activity against Mycobacterium mageritense after 2 to 4 weeks by two fold dilution method
Mycolicibacterium phlei = assay: Antimicrobial activity against Mycobacterium phlei after 2 to 4 weeks by two fold dilution method
Mycolicibacterium vaccae = assay: Antimicrobial activity against Mycobacterium vaccae after 2 to 4 weeks by two fold dilution method
Mycobacterium kansasii = assay: Antimicrobial activity against Mycobacterium kansasii after 2 to 4 weeks by two fold dilution method
Mycobacterium malmoense = assay: Antimicrobial activity against Mycobacterium malmoense after 2 to 4 weeks by two fold dilution method
Mycobacterium gordonae = assay: Antimicrobial activity against Mycobacterium gordonae after 2 to 4 weeks by two fold dilution method
Mycobacterium simiae = assay: Antimicrobial activity against Mycobacterium simiae after 2 to 4 weeks by two fold dilution method
[15] = test system: Mycobacterium scrofulaceum; assay: Antimicrobial activity against Mycobacterium scrofulaceum after 2 to 4 weeks by two fold dilution method
Mycolicibacter hiberniae = assay: Antimicrobial activity against Mycobacterium hiberniae after 2 to 4 weeks by two fold dilution method
[16] = test system: Mycobacterium interjectum; assay: Antimicrobial activity against Mycobacterium interjectum after 2 to 4 weeks by two fold dilution method
Mycobacterium szulgai = assay: Antimicrobial activity against Mycobacterium szulgai after 2 to 4 weeks by two fold dilution method
Mycolicibacter terrae = assay: Antimicrobial activity against Mycobacterium terrae after 2 to 4 weeks by two fold dilution method
Mycobacterium conspicuum = assay: Antimicrobial activity against Mycobacterium conspicuum after 2 to 4 weeks by two fold dilution method
[17] = test system: Mycolicibacterium novocastrense; assay: Antimicrobial activity against R207910 resistant Mycobacterium novocastrense after 2 to 4 weeks by two fold dilution method
Mycobacterium xenopi = assay: Antimicrobial activity against Mycobacterium xenopi after 2 to 4 weeks by two fold dilution method
Mycobacterium shimoidei = assay: Antimicrobial activity against Mycobacterium shimoidei after 2 to 4 weeks by two fold dilution method
[18] = test system: Mycobacterium tuberculosis; assay: Antimicrobial activity against drug-susceptible Mycobacterium tuberculosis isolate after 2 to 4 weeks by two fold dilution method
[19] = test system: Mycobacterium avium complex sp.; assay: Antimicrobial activity against Mycobacterium avium complex isolate after 2 to 4 weeks by two fold dilution method
Mycobacterium avium [20] = assay: Antimicrobial activity against Mycobacterium avium 1 after 2 to 4 weeks by two fold dilution method
[21] = Mycobacterium avium complex sp.

COc1nc2ccc(Br)cc2cc1[C@@H](c1ccccc1)[C@@](O)(CCN(C)C)c1cccc2ccccc12 [BEDAQUILINE]
MIC (Mycobacterium avium [1]): 0.03 µg/mL (≈ 0.054 µM) | MIC (Mycobacterium avium [2]): 0.03 µg/mL (≈ 0.054 µM) | MIC (Mycobacterium avium [3]): 0.13 µg/mL (≈ 0.234 µM) | MIC (Mycobacterium avium [4]): 0.03 µg/mL (≈ 0.054 µM) | MIC (Mycobacterium avium [5]): 0.13 µg/mL (≈ 0.234 µM) | MIC (Mycobacterium avium [6]): 0.03 µg/mL (≈ 0.054 µM) | MIC (Mycobacterium avium [7]): 0.06 µg/mL (≈ 0.108 µM) | MIC (Mycobacterium avium [8]): 0.03 µg/mL (≈ 0.054 µM) | MIC (Mycobacterium avium [9]): 0.03 µg/mL (≈ 0.054 µM) | MIC [10]: 0.03 µg/mL (≈ 0.054 µM) | MIC [11]: 0.03 µg/mL (≈ 0.054 µM) | MIC [12]: 0.03 µg/mL (≈ 0.054 µM) | MIC (Mycobacteroides chelonae): 0.06 µg/mL (≈ 0.108 µM) | MIC [13]: 0.13 µg/mL (≈ 0.234 µM) | MIC [14]: 0.03 µg/mL (≈ 0.054 µM) | MIC (Mycolicibacterium phlei): 0.03 µg/mL (≈ 0.054 µM) | MIC (Mycolicibacterium vaccae): 0.03 µg/mL (≈ 0.054 µM) | MIC (Mycobacterium kansasii): 0.03 µg/mL (≈ 0.054 µM) | MIC (Mycobacterium malmoense): 0.5 µg/mL (≈ 0.9 µM) | MIC (Mycobacterium gordonae): 0.03 µg/mL (≈ 0.054 µM) | MIC (Mycobacterium simiae): 0.03 µg/mL (≈ 0.054 µM) | MIC [15]: 0.03 µg/mL (≈ 0.054 µM) | MIC (Mycolicibacter hiberniae): 0.03 µg/mL (≈ 0.054 µM) | MIC [16]: 0.03 µg/mL (≈ 0.054 µM) | MIC (Mycobacterium szulgai): 0.03 µg/mL (≈ 0.054 µM) | MIC (Mycolicibacter terrae): 0.03 µg/mL (≈ 0.054 µM) | MIC (Mycobacterium conspicuum): 0.13 µg/mL (≈ 0.234 µM) | MIC [17]: 8 µg/mL (≈ 14.4 µM) | MIC (Mycobacterium xenopi): 4 µg/mL (≈ 7.2 µM) | MIC (Mycobacterium shimoidei): 8 µg/mL (≈ 14.4 µM) | MIC [18]: 0.002 µg/mL (≈ 0.0036 µM) | MIC50 [18]: 0.03 µg/mL (≈ 0.054 µM) | MIC90 [18]: 0.06 µg/mL (≈ 0.108 µM) | MI50 [19]: 0.03 µg/mL | MIC [19, 21]: 0.03 µg/mL (≈ 0.054 µM) | MIC90 [19, 21]: 0.13 µg/mL (≈ 0.234 µM) | MIC (Mycobacterium avium [20]): 0.03 µg/mL (≈ 0.054 µM)
